From patent publication US20160199365A1, “2-Carboxamide Cycloamino Urea Derivatives in Combination with HSP90 Inhibitors for the Treatment of Proliferative Diseases” (Novartis AG, priority 2011, published 2016)
Read-outs that look alike come from different tables or passages of the source.

Columns and labels:
[1] = test system: HGC-27 subcutaneous xenografts (human gastric carcinoma cells, PIK3CA mutation, PTEN null); settings: mouse, in vivo, po
Protocol: (§1) Experiments are performed in female Hsd:Athymic Nude-FoxN1^nu Nude mice approximately 8-12 weeks of age at treatment start.
(§2) HGC-27 cells, which are human gastric carcinoma cells with a PIK3CA mutation (c1624G>A, p.E542K) and PTEN null, are grown in MEM culture medium containing 1% non-essential amino acid with 10% heat-inactivated FCS, and are incubated at 37° C. in a 5% CO2 humidified atmosphere.
(§3) HGC-27 tumors are established in vivo by injection 5×10^6 cells in 200 μl (100 μl PBS+100 μl Matrigel) (Cat #354234, BD Bioscience, Bedford, Mass.) subcutaneous into the right flank of the animals. The efficacy experiments are started when the tumors reach an average size of approximately 230 mm^3 (day 12 post cell injection).
(§4) Compound A is formulated in 0.5% Methylcellulose (MC). 80 mg of Compound A is added to 16 ml of 0.5% MC, then stirred/vortexed and sonicated in water bath sonicator for 1 h to obtain 5 mg/ml homogeneous suspension. 0.5% MC is used to dilute the 5 mg/ml solution to 2.5 mg/ml and 1.25 mg/ml for dosing. Compound A or vehicle is administered orally at a volume of 10 ml/kg.
(§5) Tumor volumes are measured with calipers and determined according to the formula: length×diameter^2×π/6. Antitumor activity is expressed as T/C % which is determined according to the formula: (mean change of tumor volume of treated animals/mean change of tumor volume of control animals)×100. Regressions (%) are calculated according to the formula ((mean tumor volume at end of treatment-mean tumor volume at start of treatment)/mean tumor volume at start of treatment)×100. Body weights and tumor volumes are recorded twice a week.
(§6) Where applicable, data is presented as mean±SEM. For all tests, the level of significance is set at p<0.05. For tumor volumes, comparisons between treatment groups and vehicle control group are done using one-way ANOVA followed by Dunnett's test. Tumor volumes comparisons between treatment groups are done using Kruskal-Wallis one way ANOVA post-hoc Student Newman Kuels test or Dunn's test. In the first experiment, Compound A is orally administered daily to HGC-27 subcutaneous xenografts, tumor-bearing nude mice at a dose of 12.5 mg/kg, 25 mg/kg and 50 mg/kg.

[2] = test system: HGC-27 subcutaneous xenografts (human gastric carcinoma cells, PIK3CA mutation, PTEN null); test: HGC-27 gastric cancer xenograft model in female athymic nude mice (Example 1); settings: for mean change of tumor volume: mean±SEM
Protocol: as §1, §2, §3, §4, §5, §6

[3] = test system: KYSE-70 tumors (esophageal squamous cell carcinoma cells); test: KYSE-70 esophageal squamous cell carcinoma xenograft model (Example 4); format: in vivo, mice
Protocol: KYSE-70 tumors are established by injecting 7.5×10^6 KYSE-70 cells, which are esophageal squamous cell carcinoma cells, in 100 μl cell suspension, with a 23 gauge needle subcutaneously on the right flank of the mice. Ten (10) days after implantation, […]. When tumors are established and reach about 156 mm^3 (minimum 86 mm^3, maximum 218 mm^3) approximately 10 days after implantation, 48 animals are selected and randomized into 6 treatment groups (n=8). Placebo control is formulated as 10 ml/kg of 250 μl NMP, 750 μl PEG300, 500 μl Solutol HS15, and 1000 μl water for delivery once daily per oral (Placebo 1) and as 10 ml/kg of 2.5 ml Glucose for delivery intravenously twice a week (Placebo 2). Compound A is formulated in NMP/PEG300/Solutol HS15/water (10:30:20:40% vol/vol). The compound is fully dissolved in NMP first and water is added immediately prior to administration to animals. […] All doses of AUY922 refer to the free base equivalent. AUY922 is administered iv at a volume of 10 ml/kg, twice a week.

[4] = test system: NCI-N87 tumors (human gastric carcinoma cells); test: NCI-N87 gastric cancer xenograft model, third experiment (Example 3); format: in vivo, mice; settings: single agent
Protocol: Cells are harvested with trypsin (0.25% w/v)-EDTA (0.53 mM), are re-suspended in culture medium (with additives) and are counted with a Casy® system. Cell culture reagents are purchased from BioConcept (Allschwil, Switzerland). NCI-N87 tumors are established by injecting […] to 1×10^7 cells (in HBSS containing 50% v/v Matrigel) subcutaneously with a 23 Gauge needle. When tumors are established and reach between 180 and 210 mm^3, animals are randomized into treatment groups and the treatments are initiated. Compound A is formulated in NMP/PEG300/Solutol HS15/water (10:30:20:40% vol/vol) The compound is fully dissolved in NMP first and water is added immediately prior to administration to animals. […] All doses of AUY922 refer to the free base equivalent. AUY922 is administered iv at a volume of 10 ml/kg, twice a week. […] Pairwise comparisons are done using a one way ANOVA followed by Tukey's test. The level of significance of body weight change within a group between start and end of the treatment period is determined using a paired t-test. […] Calculations are performed using GraphPad Prism 4 for windows (GraphPad Software Inc.). In addition, an approximation of drug interactions is made using the method described by Clarke R., “Issues in experimental design and endpoint analysis in the study of experimental cytotoxic agents in vivo in breast cancer and other models”, Breast Cancer Res. Treat, 46, 255-78 (1997). This is applied to MV (Tumor volume). In the third efficacy experiment, the tumor model is set up as in the second experiment.

[5] = test system: HGC-27 subcutaneous xenografts; test: HGC-27 gastric cancer xenograft model, treatment from day 20 for 14 days (Example 2); format: in vivo, mice
Text: The procedure described in Example 1 is followed with the following modifications: Treatments are initiated on day 20 following tumor cell implantation of 5 million HCG-27 cells, when the average tumor volume is 316 mm^3 (164-485 mm^3).

[6] = test system: NCI-N87 tumors (human gastric carcinoma cells); test: NCI-N87 gastric cancer xenograft model, second experiment (Example 3); format: in vivo, mice; settings: single agent
Protocol: Cells are harvested with trypsin (0.25% w/v)-EDTA (0.53 mM), are re-suspended in culture medium (with additives) and are counted with a Casy® system. Cell culture reagents are purchased from BioConcept (Allschwil, Switzerland). NCI-N87 tumors are established by injecting […] to 1×10^7 cells (in HBSS containing 50% v/v Matrigel) subcutaneously with a 23 Gauge needle. When tumors are established and reach between 180 and 210 mm^3, animals are randomized into treatment groups and the treatments are initiated. Compound A is formulated in NMP/PEG300/Solutol HS15/water (10:30:20:40% vol/vol) The compound is fully dissolved in NMP first and water is added immediately prior to administration to animals. […] All doses of AUY922 refer to the free base equivalent. AUY922 is administered iv at a volume of 10 ml/kg, twice a week. […] Pairwise comparisons are done using a one way ANOVA followed by Tukey's test. The level of significance of body weight change within a group between start and end of the treatment period is determined using a paired t-test. […] Calculations are performed using GraphPad Prism 4 for windows (GraphPad Software Inc.). In addition, an approximation of drug interactions is made using the method described by Clarke R., “Issues in experimental design and endpoint analysis in the study of experimental cytotoxic agents in vivo in breast cancer and other models”, Breast Cancer Res. Treat, 46, 255-78 (1997). This is applied to MV (Tumor volume).

[7] = test system: NCI-N87 tumors (human gastric carcinoma cells); test: NCI-N87 gastric cancer xenograft model, first experiment (Example 3); format: in vivo, mice
Protocol: Cells are harvested with trypsin (0.25% w/v)-EDTA (0.53 mM), are re-suspended in culture medium (with additives) and are counted with a Casy® system. Cell culture reagents are purchased from BioConcept (Allschwil, Switzerland). NCI-N87 tumors are established by injecting […] to 1×10^7 cells (in HBSS containing 50% v/v Matrigel) subcutaneously with a 23 Gauge needle. When tumors are established and reach between 180 and 210 mm^3, animals are randomized into treatment groups and the treatments are initiated. Compound A is formulated in NMP/PEG300/Solutol HS15/water (10:30:20:40% vol/vol) The compound is fully dissolved in NMP first and water is added immediately prior to administration to animals. […] All doses of AUY922 refer to the free base equivalent. AUY922 is administered iv at a volume of 10 ml/kg, twice a week. […] Pairwise comparisons are done using a one way ANOVA followed by Tukey's test. The level of significance of body weight change within a group between start and end of the treatment period is determined using a paired t-test. […] Calculations are performed using GraphPad Prism 4 for windows (GraphPad Software Inc.). In addition, an approximation of drug interactions is made using the method described by Clarke R., “Issues in experimental design and endpoint analysis in the study of experimental cytotoxic agents in vivo in breast cancer and other models”, Breast Cancer Res. Treat, 46, 255-78 (1997). This is applied to MV (Tumor volume). Female athymic nude mice are treated orally once a day with 50 mg/kg Compound A, alone or in combination with 50 mg/kg of AUY922 administered intravenously twice a week. […] For compound A, B or the combination AB (with Vehicle Control group C), antagonism is predicted when the calculation AB/C>A/C×B/C, additive effect: AB/C=A/C×B/C, synergistic interactions are predicted to occur when AB/C<[…].

[8] = Stability of Compound A dosing formulation; format: physicochemical; settings: room temperature
Protocol: Compound A is formulated in NMP/PEG300/Solutol HS15/water (10:30:20:40% vol/vol) The compound is fully dissolved in NMP first and water is added immediately prior to administration to animals.
Compound A is formulated in NMP/PEG300/Solutol HS15/water (10:30:20:40% vol/vol). The compound is fully dissolved in NMP first and water is added immediately prior to administration to animals.

[9] = Group 2: 12.5 mg/kg Compound A per oral once daily
[10] = Group 3: 50 mg/kg Compound A per oral once daily
[11] = Compound A 50 mg/kg orally once a day
[12] = AUY922 50 mg/kg i.v. twice a week
[13] = Group 4: 50 mg/kg AUY922 intravenous twice a week

Cc1nc(NC(=O)N2CCC[C@H]2C(N)=O)sc1-c1ccnc(C(C)(C)C(F)(F)F)c1 [Compound A, (S)-Pyrrolidine-1,2-dicarboxylic acid 2-amide 1-({4-methyl-5-[2-(2,2,2-trifluoro-1,1-dimethyl-ethyl)-pyridin-4-yl]-thiazol-2-yl}-amide)]
body weight change ([1]; 12.5 mg/kg): 5.3±1.4%
body weight change ([1]; 25 mg/kg): 2.2±1.1%
body weight change ([1]; 50 mg/kg): −1.1±1.6%
T/C % ([2]; Compound A 12.5 mg/kg p.o. once daily, 12 days, day 23): 39.4%
mean change of tumor volume ([2]; Compound A 12.5 mg/kg p.o. once daily): 515±85 mm^3
T/C % ([2]; Compound A 25 mg/kg p.o. once daily, 12 days, day 23): 35.5%
mean change of tumor volume ([2]; Compound A 25 mg/kg p.o. once daily): 465±111 mm^3
T/C % ([2]; Compound A 50 mg/kg p.o. once daily, 12 days, day 23): 7.1%
mean change of tumor volume ([2]; Compound A 50 mg/kg p.o. once daily): 93±77 mm^3
T/C [%] Day 10 [3, 9]: 100.0%
T/C [%] Day 14 [3, 9]: −7.1%
T/C [%] Day 17 [3, 9]: 74.0%
T/C [%] Day 21 [3, 9]: 40.6%
T/C [%] Day 24 [3, 9]: 47.5%
T/C [%] Day 10 [3, 10]: 100.0%
T/C [%] Day 14 [3, 10]: −49.3%
T/C [%] Day 17 [3, 10]: −2.7%
T/C [%] Day 21 [3, 10]: −40.1%
T/C [%] Day 24 [3, 10]: −10.9%
T/C ([4]; Compound A 12.5 mg/kg orally once a day): 37.8%
mean change of tumor volume (mm^3±SEM) ([4]; Compound A 12.5 mg/kg): 73.9±17.6 mm^3
regressions [4, 11]: 6.4%
mean change of tumor volume (mm^3±SEM) ([4]; Compound A 50 mg/kg): −13.3±6.7 mm^3
T/C ([5]; Compound A 25 mg/kg q.d. p.o.): 11%
T/C ([5]; Compound A 50 mg/kg q.d. p.o.): 10%
T/C ([6]; Compound A 12.5 mg/kg orally once a day, not statistically significant): 30.3%
mean change of tumor volume (mm^3±SEM) ([6]; Compound A 12.5 mg/kg): 114.9±43.9 mm^3
regressions [6, 11]: 1.2%
mean change of tumor volume (mm^3±SEM) ([6]; Compound A 50 mg/kg): −2.3±15.2 mm^3
T/C ([7]; Compound A 50 mg/kg orally once a day, single agent): 4.2%
ΔTV Cmpd. A (A) ([7]; Compound A 50 mg/kg orally once a day, change of tumor volume (mm^3)): 1.4
A/C ([7]; ΔTV of Compound A over vehicle control, Clarke method): 0.006
stability of suspension ([8]; Compound A in NMP/PEG300/Solutol HS15/water (10:30:20:40% vol/vol)): stable for one week
stability of suspension ([8]; Compound A suspension in 0.5% Methylcellulose): stable for one week

CCNC(=O)c1noc(-c2cc(C(C)C)c(O)cc2O)c1-c1ccc(CN2CCOCC2)cc1 [AUY922, 5-(2,4-Dihydroxy-5-isopropyl-phenyl)-4-(4-morpholin-4-ylmethyl-phenyl)-isoxazole-3-carboxylic acid ethylamide, reference compound]
T/C % ([2]; AUY922 50 mg/kg free base i.v. twice a week): 60.5%
body weight change [2, 12]: 6.6±2.6%
mean change of tumor volume [2, 12]: 792.2±159 mm^3
T/C [%] Day 10 [3, 13]: 100.0%
T/C [%] Day 14 [3, 13]: 145.3%
T/C [%] Day 17 [3, 13]: 144.4%
T/C [%] Day 21 [3, 13]: 131.8%
T/C [%] Day 24 [3, 13]: 141.1%
T/C ([4]; AUY922 50 mg/kg): 14%
mean change of tumor volume ([4]; AUY922 50 mg/kg, ±SEM): 27.4±10.2 mm^3
T/C ([5]; AUY922 50 mg/kg 2q.w. i.v.): 57%
T/C ([6]; AUY922 50 mg/kg i.v. twice per week): 4.7%
mean change of tumor volume ([6]; AUY922 50 mg/kg, ±SEM): 17.9±11.0 mm^3
tumor regressions ([7]; AUY922 50 mg/kg i.v. twice a week, single agent): 7%
mean change of tumor volume ([7]; AUY922 50 mg/kg i.v. twice a week, single agent, ±SEM): −15.1±21.4 mm^3
ΔTV AUY922 (B) ([7]; AUY922 50 mg/kg i.v. twice a week, change of tumor volume (mm^3)): −15.1
B/C ([7]; ΔTV of AUY922 over vehicle control, Clarke method): −0.061
